Experiments:
[1] = photobleaching in ambient light or in the dark; assay type: physicochemical; conditions: 50 nM in PBS, n = 4
HCT-116/δOR tumors [2] = assay type: in vivo, mice; conditions: i.v. tail vein
[3] = absorbance and emission spectra; assay type: physicochemical; conditions: for absorbance maximum: Tecan Infinite M-1000 PRO, 230–1000 nm; for absorbance maximum / emission maximum: step 2 nm; for emission maximum: bandwidth 5 nm; for Stokes-shift: conjugate versus free IR800CW
DMS-53 (δOR+) tumors [4] = assay type: in vivo, mice; conditions: i.v. tail vein; 40, 80 and 160 nmol/kg compared
DMS-53 (δOR+) tumors [5] = test: in vivo selectivity imaging, bilateral H1299 and DMS-53 xenografts, Optix-MX3; set-up: species or system mice; conditions: 40 nmol/kg i.v., 24 hours post-injection, n = 4, p ≤ 0.01
HCT-116/δOR tumors [6] = assay type: in vivo, mice; conditions: 10 nmol/kg i.v., 24 hours post-injection, n = 4, p ≤ 0.01
[7] = ref not given, cited from earlier work; for emission maximum, free dye: reported value; for absorbance maximum, free dye: reported for the free dye
HCT-116 cells = test: semi-quantitative confocal microscopy, parental HCT-116 cells; assay type: cell-based; conditions: Dmt-Tic-Lys-Cy5 50 nM
H1299 cells [8] = test: confocal fluorescence microscopy, H1299; assay type: cell-based
DMS-53 cells [9] = test: confocal fluorescence microscopy, DMS-53; assay type: cell-based
δOR = δOR (Homo sapiens, UniProt P41143); conditions: cited from earlier work
Chain of δOR (P41143 1-357 limits assumed): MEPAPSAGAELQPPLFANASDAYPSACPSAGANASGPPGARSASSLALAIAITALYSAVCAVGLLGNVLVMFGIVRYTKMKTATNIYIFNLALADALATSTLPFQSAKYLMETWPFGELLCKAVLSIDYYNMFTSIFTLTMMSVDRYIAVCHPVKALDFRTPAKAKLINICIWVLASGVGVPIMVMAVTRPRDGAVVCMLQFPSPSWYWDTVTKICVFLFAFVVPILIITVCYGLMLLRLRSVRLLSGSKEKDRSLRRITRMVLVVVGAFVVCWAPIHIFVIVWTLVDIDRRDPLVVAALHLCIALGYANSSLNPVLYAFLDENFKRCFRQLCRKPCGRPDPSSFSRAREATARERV

H1299 cells [10] = test: semi-quantitative confocal microscopy, H1299 cells; assay type: cell-based; conditions: Dmt-Tic-Lys-Cy5 50 nM
DMS-53 cells [11] = test: semi-quantitative confocal microscopy, DMS-53 cells; assay type: cell-based; conditions: Dmt-Tic-Lys-Cy5 50 nM
HCT-116/δOR tumor = conditions: dose 4.5 nmol/kg; previous experiments; cited from earlier work
HCT-116/δOR cells = test: semi-quantitative confocal microscopy, HCT-116/δOR cells; assay type: cell-based; conditions: Dmt-Tic-Lys-Cy5 50 nM
[12] = cited from earlier work
[13] = Dmt-Tic-Lys-Cy5 50 nM, 15 min, room temperature
[14] = naloxone 5 µM final pre-incubated 15 min, Dmt-Tic-Lys-Cy5 50 nM final

With `Cc1cc(O)cc(C)c1C[C@H](N)C(=O)N1Cc2ccccc2C[C@H]1C(=O)N[C@@H](CCCCNC(=O)CCSC1CC(=O)N(CCNC(=O)CCCCCN2C(=CC=C3CCCC(C=CC4=[N+](CCCCS(=O)(=O)[O-])c5ccc(S(=O)(=O)O)cc5C4(C)C)=C3Oc3ccc(S(=O)(=O)O)cc3)C(C)(C)c3cc(S(=O)(=O)O)ccc32)C1=O)C(=O)O` (stereo partly drawn) [Dmt-Tic-IR800] as the molecule, how does the “significance of difference in percent initial fluorescence, light versus dark” value ([1]; ICG filter set, except at ≥ 7 hours) read?
Its value is “not significantly different”.

What about the “difference in percent of the initial fluorescence intensity, light versus dark” value ([1]; ICG filter set, significant at ≥ 7 hours) of the same molecule?
Its value is 6–13%.

And the “tumor-to-background ratio, 20 versus 10 nmol/kg” value (HCT-116/δOR tumors [2]; 10 nmol/kg selected)?
Its value is “similar”.

And the tumor-to-background ratio (HCT-116/δOR tumors [2]; 20 and 10 nmol/kg versus 5 and 2.5 nmol/kg, all time points)?
Its tumor-to-background ratio is “greatest tumor-to-background ratio”.

What about the dye retention (HCT-116/δOR tumors [2]; IVIS-200) of the same molecule?
Its dye retention is “retained for days”.

What about the absorbance maximum ([3]; 100 µM in PBS) of the same molecule?
Its absorbance maximum is 778 nm.

And the emission maximum ([3]; 1 mM in PBS, emission 450–850 nm)?
Its emission maximum is 832 nm.

And the Stokes-shift [3]?
Its Stokes-shift is 54 nm.

What about the optimal dose (DMS-53 (δOR+) tumors [4]) of the same molecule?
Its optimal dose is 40 nmol/kg.

And the “fold enhancement of positive tumor (DMS-53) relative to negative tumor (H1299)” value (DMS-53 (δOR+) tumors [5])?
The value was ~ 4 fold.

What about the “normalized intensity, DMS-53 versus H1299” value (DMS-53 (δOR+) tumors [5]) of the same molecule?
Its value is “significantly higher normalized intensity”.

And the “average fluorescence signal, HCT-116/δOR versus HCT-116 tumors” value (HCT-116/δOR tumors [6])?
The value was “significantly higher average fluorescence signal”.

With `CCN1/C(=C/C=C/C=C/C2=[N+](CCCCCC(=O)O)c3ccc(S(=O)(=O)O)cc3C2(C)C)C(C)(C)c2cc(S(=O)(=O)[O-])ccc21` [Cy5] as the molecule, how does the “emission maximum, free dye” value [7] read?
The value was 670 nm.

And the “absorbance maximum, free dye” value [7]?
The value was 649 nm.

For Dmt-Tic-Lys-Cy5, which labeling (HCT-116 cells) is on record?
Its labeling is “No labeling was observed”.

And the photobleaching ([1]; light versus dark, IVIS-200, Cy5 filter set)?
The photobleaching was “photobleaches”.

What about the cell-surface labeling (H1299 cells [8]; [13]) of the same molecule?
The cell-surface labeling was “little labeling was observed”.

What about the cell-surface labeling (DMS-53 cells [9]; [13]) of the same molecule?
The cell-surface labeling was “cell-surface labeling is observed”.

What about the “δOR affinity (in words)” value (δOR) of the same molecule?
The value was “low nM affinity”.

What about the Ki (δOR; read-out: binding affinity for the δOR (Ki)) of the same molecule?
The Ki was 3 nM.

What about the absorbance maximum ([3]; 100 µM in PBS) of the same molecule?
The absorbance maximum was 650 nm.

What about the emission maximum ([3]; 100 µM in PBS, emission 280–850 nm) of the same molecule?
The emission maximum was 676 nm.

And the labeling (H1299 cells [10])?
The labeling was “No labeling was observed”.

What about the cell-surface labeling (DMS-53 cells [11]) of the same molecule?
The cell-surface labeling was “Cell-surface labeling was observed”.

And the “tumor uptake and retention” value (HCT-116/δOR tumor)?
The value was “selective uptake and retention”.

What about the cell-surface labeling (HCT-116/δOR cells) of the same molecule?
The cell-surface labeling was “Cell-surface labeling was observed”.

Which toxicity [12] does the source give for `CC1(C)C(/C=C/C2=C(Oc3ccc(S(=O)(=O)O)cc3)C(=C/C=C3/N(CCCCS(=O)(=O)O)c4ccc(S(=O)(=O)[O-])cc4C3(C)C)/CCC2)=[N+](CCCCCC(=O)O)c2ccc(S(=O)(=O)O)cc21` [IR800CW] here?
The toxicity was “non-toxic”.

What about the “emission maximum, free dye” value [7] of the same molecule?
The value was 789 nm.

And the “absorbance maximum, free dye” value [7]?
The value was 774 nm.

What about the Stokes-shift [3] of the same molecule?
The Stokes-shift was 15 nm.

Which results are given for `C=CCN1CC[C@]23c4c5ccc(O)c4O[C@H]2C(=O)CC[C@@]3(O)[C@H]1C5` [naloxone]?
effect of naloxone on cell-surface labeling (H1299 cells [8]; [14]): unaffected; effect of naloxone on cell-surface labeling (DMS-53 cells [9]; [14]): blocked
